Measurements published in US11208410B2, “Heterocycle-bound condensed heterocyclic compound or salt thereof, agricultural and horticultural insecticide comprising the compound, and method for using the insecticide” (Nihon Nohyaku Co., Ltd., priority 2016, dated 2021).

Assays:
[1] = system: Laodelphax striatella; assay: Insecticidal test on Laodelphax striatella (rice seedling dip); format: in vivo; conditions: Laodelphax striatellus, 192 h, rice seedlings dipped 30 seconds, 3rd-instar larvae, 8 days after inoculation, read-out: insecticidal effect (corrected mortality rate), activity level
Source text: Insecticidal test on Laodelphax striatella
The heterocycle-bound condensed heterocyclic compounds represented by the general formula (1) of the present invention or salts thereof were separately dispersed in water and diluted to 500 ppm. Rice plant seedlings (variety: Nihonbare) were dipped in the agrochemical dispersions for 30 seconds. After air-dried, each seedling was put into a separate glass test tube and inoculated with ten 3rd-instar larvae of Laodelphax striatella, and then the glass test tubes were capped with cotton plugs. At 8 days after the inoculation, the numbers of surviving larvae and dead larvae were counted, the corrected mortality rate was calculated according to the formula shown below, and the insecticidal effect was evaluated according to the criteria shown below. Corrected mortality rate (%)=100×(Survival rate in a non-treatment plot−Survival rate in a treatment plot)/Survival rate in a non-treatment plot [Math. 2] Criteria A: the corrected mortality rate is 100%. B: the corrected mortality rate is 90 to 99%. C: the corrected mortality rate is 80 to 89%. D: the corrected mortality rate is 50 to 79%.

[2] = system: Plutella xylostella; assay: Insecticidal test on Plutella xylostella (dip of Chinese cabbage seedlings with laid eggs); format: in vivo; conditions: 144 h, seedlings with laid eggs dipped about 30 seconds, 25° C., 6 days after dip treatment, read-out: insecticidal effect (corrected mortality rate), activity level
Source text: Insecticidal Test on Plutella xylostella
Adults of Plutella xylostella were released onto Chinese cabbage seedlings and allowed to lay eggs thereon. At 2 days after the release of the adults, the Chinese cabbage seedlings with laid eggs were dipped for about 30 seconds in agrochemical dispersions diluted to 500 ppm, each of which contained a different kind of heterocycle-bound condensed heterocyclic compound represented by the general formula (1) of the present invention as an active ingredient. After air-dried, the seedlings were kept in a thermostatic chamber at 25° C. At 6 days after the dip treatment, the number of hatched larvae per plot was counted, the mortality rate was calculated according to the formula shown below, and the insecticidal effect was evaluated according to the criteria of Test Example 2. This test was conducted in triplicate using 10 adults of Plutella xylostella per plot. Corrected mortality rate (%)=100×(Number of hatched larvae in a non-treatment plot−Number of hatched larvae in a treatment plot)/Number of hatched larvae in a non-treatment plot [Math. 3]

| SMILES | mortality at 500 ppm [1] [%] | mortality at 500 ppm [2] [%] |
| --- | --- | --- |
| CCS(=O)(=O)c1cc(-c2noc(C(F)(F)F)n2)cnc1-c1nc2cc(C(F)(F)C(F)(F)F)nnc2n1C [Compound 1-41, 3-{2-(3-Methyl-6-pentafluoroethyl-3H-imidazo[4,5-C]pyridazin-2-yl)-3-(ethylsulfonyl)pyridin-5-yl}-5-trifluoromethyl-1,2,4-oxadiazole] | 100 | 100 |
| CCS(=O)(=O)c1cc(-c2nc(-c3ccccc3)no2)cnc1-c1nc2cc(C(F)(F)C(F)(F)F)nnc2n1C [Compound 2-56, 5-{2-(3-Methyl-6-pentafluoroethyl-3H-imidazo[4,5-C]pyridazin-2-yl)-3-(ethylsulfonyl)pyridin-5-yl}-3-phenyl-1,2,4-oxadiazole] | 100 | 100 |
